The values that follow come from PubChem BioAssay AID788 (SRMLSC, 2007).

Assay [1] in a line: vps1Δ apl2Δ double mutant yeast growth inhibitors – S. cerevisiae, background strain comparison, post-Golgi transport modulator project, dose response (AID 788). The settings on record: S. cerevisiae vps1Δ apl2Δ growth inhibition, dose response; at 25 µM (top of the series).
Assay [2] has as its system S. cerevisiae vps1Δ apl2Δ growth inhibition, dose response. The assay is described as above.
The subject of assay [3] is S. cerevisiae wild-type background strain growth inhibition. Described as above. The settings on record: S. cerevisiae vps1Δ apl2Δ growth inhibition, dose response; measured here: wild-type background strain growth.

The source made the active and inactive calls. No rule for the calls is given here. Bounds are passed on as bounds.

Take `O=C(Nc1nnc(-c2cccs2)o1)c1cccc(C(F)(F)F)c1`: in assay [1], the growth inhibition was 36.6% (inactive).
Turning to `CCCCC(c1nnnn1Cc1ccco1)N1CCN(c2nc3ccccc3s2)CC1` (stereo unspecified), the results for the IC50 in assay [2] and in assay [3] were 19.7 µM (inactive) and 3.9 µM, respectively.
As to `CCOC(=O)c1cc2c(ccn2C)n1CC(=O)N1CCN(c2ccccc2OC)CC1`, the IC50 in assay [2] is > 10 µM (inactive); in assay [3] it was over 10 µM.
As for `Cc1cc(C)nc(NC(=O)CSc2nn(C)c(=S)s2)n1`, the values for the IC50 in assay [2] and in assay [3] were > 10 µM (inactive) and over 10 µM, respectively.
Regarding `CN1CCN(CCCNC(=O)Cn2nc(-c3ccccc3)ccc2=O)CC1`, the results for the IC50 in assay [2] and in assay [3] were > 10 µM (inactive) and over 10 µM, respectively.
On to `C=C(C)C1CC=C(CN2CCC(C(=O)OCC)CC2)CC1` (stereo unspecified), for which the results for the IC50 in assay [2] and in assay [3] were 13.5 µM and over 10 µM, respectively.
For `Clc1ccc(-c2cnc(Oc3ccccc3)nc2)cc1`, in that order: > 10 µM (inactive) and over 10 µM.
The like results for `COc1ccc2oc(=O)c(-c3nnc(NCc4ccco4)s3)cc2c1` were, in that order, > 10 µM (inactive) and over 10 µM.
Take `Cc1ccc2nc(C)cc(OCC(=O)O)c2c1`: the IC50 in assay [2] was > 10 µM (inactive); in assay [3], over 10 µM.
With `O=C(Nc1nnc(-c2ccc3c(c2)CCCC3)o1)c1ccccc1Cl`, the IC50 is 14.6 µM (inactive) in assay [2] and 10.7 µM in assay [3].
In the case of `C/C(CCC12CC3CC(CC(C3)C1)C2)=N\NC(N)=S`, the IC50 was 1.65 µM in assay [2] and 5.28 µM in assay [3].
Take `FC(F)(F)COc1nc(N2CCCCC2)nc(N2CCNCC2)n1`: the IC50 in assay [2] was > 10 µM (inactive); in assay [3], over 10 µM.
For `O=C(C1CCN(S(=O)(=O)c2cccs2)CC1)N1CCCCCC1`, in that order: > 10 µM (inactive) and over 10 µM.
For `O=C(O)c1ccc(N2CCCCC2)cc1`, the IC50 in assay [2] is > 10 µM (inactive); in assay [3], over 10 µM.
As for `N#CC1=C(N)C(C#N)(C#N)C(c2cccnc2)C2CC(c3ccccc3)CC=C12` (stereo unspecified), the values for the IC50 in assay [2] and in assay [3] were 2.89 µM and 2.97 µM, respectively.
As to `CCSc1nnc(NC(=O)NCC(F)(F)F)s1`, the IC50 in assay [2] was > 10 µM (inactive); in assay [3], over 10 µM.
On to `CCN(CC)c1ccc(-c2nc3cnccc3n2C)cc1`, for which the IC50 is > 10 µM (inactive) in assay [2] and over 10 µM in assay [3].
With `Cc1nc(NC(=O)c2ccccc2)sc1-c1csc(Nc2ccc(F)cc2)n1`, the results for the IC50 in assay [2] and in assay [3] were > 10 µM (inactive) and over 10 µM, respectively.
With `NC(=O)c1c(NC(=O)CN2C(=O)CCC2=O)sc2c1CCCCC2`, the figures for the IC50 in assay [2] and in assay [3] were > 10 µM (inactive) and over 10 µM, respectively.
For `COc1cc2[nH]c(=S)n(CCCN3CCOCC3)c(=O)c2cc1OC`, in that order: > 10 µM (inactive) and over 10 µM.
Consider `Cc1ccc(C2N(c3ccc(Cl)c(Cl)c3)C(=O)C3CCCN32)o1` (stereo unspecified), for which the IC50 in assay [2] is > 10 µM (inactive); in assay [3], over 10 µM.
Turning to `OC(Cn1ccnc1)c1ccc(Cl)cc1Cl` (stereo unspecified), the values for the IC50 in assay [2] and in assay [3] were > 10 µM (inactive) and over 10 µM, respectively.
`O=C(Cc1cccs1)Nc1nc2c(s1)CCCC2`: the IC50 was > 10 µM (inactive) in assay [2] and over 10 µM in assay [3].
For `COc1ccc(C2C3=C(CCCC3=O)Nc3nc(-c4cc(OC)c(OC)c(OC)c4)nn32)cc1OC` (stereo unspecified), in that order: > 10 µM (inactive) and over 10 µM.
In the case of `CSc1ncccc1C(=O)OCC(=O)N1CCOCC1`, the IC50 in assay [2] was > 10 µM (inactive); in assay [3], over 10 µM.
Consider `COC(=O)C1=CN(CCCN2CCCC2=O)C=C(C(=O)OC)C1c1ccccc1C(F)(F)F`, for which the IC50 in assay [2] is > 10 µM (inactive); in assay [3] it was over 10 µM.
The like results for `O=c1c2c3c(sc2ncn1/N=C/c1ccc([N+](=O)[O-])o1)CCCC3` were, in that order, 1.8 µM (inactive) and 1.59 µM.
For `CCOC(=O)NC(Nc1ccc(S(N)(=O)=O)cc1)(C(=O)OCC)C(F)(F)F` (stereo unspecified), the IC50 in assay [2] is > 10 µM (inactive); in assay [3], over 10 µM.
With `O=C(N/N=C/c1ccc([N+](=O)[O-])o1)c1cc(-c2cccc(Br)c2)nc2ccccc12`, the IC50 in assay [2] was 1.02 µM; in assay [3], 4.65 µM.
For the compound `C=CCc1ccccc1OCC(O)CN1CCN(Cc2ccc3c(c2)OCO3)CC1` (stereo unspecified), the results for the IC50 in assay [2] and in assay [3] were 4.4 µM and over 10 µM, respectively.
With `O=C(Nc1nnc(C2CC2)o1)c1ccc(S(=O)(=O)N2CCCc3ccccc32)cc1`, the values for the IC50 in assay [2] and in assay [3] were > 10 µM (inactive) and 3.17 µM, respectively.
